# Laboratory results: US11084814B2, “Pyrido[3, 4-d]pyrimidine derivative and pharmaceutically acceptable salt thereof” (Teijin Pharma Limited, priority 2016, dated 2021)
# Columns and labels:
# CDK4/cyclin D3 = molecular target: T1, CDK4/cyclin D3 (Homo sapiens, UniProt P11802); assay: Human CDK4/cyclin D3 inhibitory activity (QS S Assist CDK4/Cyclin D3_FP Kit, IMAP fluorescent polarization); type: biochemical; settings: read-out: CDK4 Activity symbol
# T1 construct: purchased Carna Biosciences, Inc. QS S Assist CDK4/Cyclin D3_FP Kit
# In short: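 Kinase reactions used kit CDK4/cyclin D3 at 12.5–25 ng/well with the kit ATP/substrate/metal mix in 20 mM HEPES (pH 7.4), 0.01% Tween20 and 2 mM DTT, run 45 min at room temperature. Phosphorylation was detected by IMAP fluorescence polarization (ex 485/em 535 nm) after 30 min binding in the dark. IC50 was fitted from percent inhibition against DMSO controls with and without enzyme.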
# CDK2/cyclin A2 = molecular target: T2, CDK2/cyclin A2 (Homo sapiens, UniProt P24941); assay: Human CDK2/cyclin A2 inhibitory activity (QS S Assist CDK2/Cyclin A2_FP Kit, IMAP fluorescent polarization); type: biochemical; settings: read-out: CDK2 Activity symbol
# T2 construct: purchased Carna Biosciences, Inc. QS S Assist CDK2/Cyclin A2_FP Kit
# In short: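 Kit CDK2/cyclin A2 (2.5 ng/well) was reacted with kit ATP/substrate/metal in 20 mM HEPES pH 7.4, 0.01% Tween 20 and 2 mM DTT for 60 min at room temperature. IMAP binding reagent was added for 30 min, then fluorescence polarization was read at 485/535 nm. IC50 came from dose-response fitting of percent inhibition.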
# T1 sequence (P11802 whole entry): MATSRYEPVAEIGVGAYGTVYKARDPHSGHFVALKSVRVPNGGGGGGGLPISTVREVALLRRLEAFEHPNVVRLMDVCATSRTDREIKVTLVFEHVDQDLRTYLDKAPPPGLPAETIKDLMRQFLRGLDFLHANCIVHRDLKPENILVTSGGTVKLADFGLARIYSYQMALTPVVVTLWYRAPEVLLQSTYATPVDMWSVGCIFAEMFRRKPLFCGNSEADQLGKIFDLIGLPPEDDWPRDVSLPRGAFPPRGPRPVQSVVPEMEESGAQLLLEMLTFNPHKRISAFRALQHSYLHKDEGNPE
# T1 sequence (P30281 whole entry partner): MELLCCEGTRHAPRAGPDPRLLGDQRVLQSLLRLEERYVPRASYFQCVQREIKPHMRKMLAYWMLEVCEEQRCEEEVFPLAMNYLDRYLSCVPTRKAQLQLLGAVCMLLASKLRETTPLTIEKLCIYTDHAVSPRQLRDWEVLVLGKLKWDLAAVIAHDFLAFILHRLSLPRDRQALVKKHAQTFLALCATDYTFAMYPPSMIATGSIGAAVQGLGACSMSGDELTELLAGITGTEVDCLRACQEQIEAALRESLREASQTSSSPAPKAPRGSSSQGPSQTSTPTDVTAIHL
SMILES,IC50 (CDK4/cyclin D3),IC50 (CDK2/cyclin A2)
C[C@@H](O)c1cc2cnc(Nc3ccc(CN4CCN(CCO)CC4)cn3)nc2c(N2CC[C@H](F)C2)n1 [Compound 181],10 to 100 nM,≥ 100 nM
C[C@@H](O)c1cc2cnc(Nc3ccc(CN4CCN(CCO)CC4)cn3)nc2c(N2CC[C@@H](F)C2)n1 [Compound 182],< 10 nM,≥ 100 nM
"C[C@H](O)CN1CCN(Cc2ccc(Nc3ncc4cc([C@@H](C)O)nc(N5CCCCC5)c4n3)nc2)CC1 [Compound 183, (S)-1-(4-((6-((6-((R)-1-hydroxyethyl)-8-(piperidin-1-yl)pyrido[3,4-d]pyrimidin-2-yl)amino)pyridin-3-yl)methyl)piperazin-1-yl)propan-2-ol]",< 10 nM,≥ 100 nM
Cc1nc(Nc2ncc3cc([C@@H](C)O)nc(N4C5CCC4CC5)c3n2)ccc1N1CCN(C)CC1 [Compound 185],< 10 nM,≥ 100 nM
C[C@@H](O)c1cc2cnc(Nc3ccc(CN4CCN(C)C[C@@H]4C)cn3)nc2c(N2CCCCC2)n1 [Compound 186],< 10 nM,≥ 100 nM
C[C@@H](O)c1cc2cnc(Nc3ccc(CN4CCN(C)C[C@@H]4C)cn3)nc2c(N2C3CCC2CC3)n1 [Compound 187],< 10 nM,≥ 100 nM
C[C@@H](O)c1cc2cnc(Nc3ccc(CN4CCN(C)[C@@H](C)C4)cn3)nc2c(N2CCCCC2)n1 [Compound 188],< 10 nM,≥ 100 nM
C[C@@H](O)c1cc2cnc(Nc3ccc(CN4CCN(C)[C@@H](C)C4)cn3)nc2c(N2C3CCC2CC3)n1 [Compound 189],< 10 nM,≥ 100 nM
C[C@@H](O)c1cc2cnc(Nc3ccc(CN4CCN(CCO)CC4)cn3)nc2c(-c2ccccc2)n1 [Compound 190],10 to 100 nM,≥ 100 nM
C[C@@H](O)c1cc2cnc(Nc3ccc(N4CCNCC4=O)cn3)nc2c(-c2ccccc2)n1 [Compound 191],10 to 100 nM,≥ 100 nM
C[C@H](CO)c1cc2cnc(Nc3ccc(N4CCNCC4=O)cn3)nc2c(N2CCCCC2)n1 [Compound 192],10 to 100 nM,≥ 100 nM
C[C@H](CO)c1cc2cnc(Nc3ccc4c(n3)CCN(CCO)C4)nc2c(N2CCCCC2)n1 [Compound 193],10 to 100 nM,≥ 100 nM
C[C@@H](CO)c1cc2cnc(Nc3ccc(N4CCNCC4=O)cn3)nc2c(N2CCCCC2)n1 [Compound 194],< 10 nM,≥ 100 nM
C[C@H](CO)c1cc2cnc(Nc3ccc(CN4CCN(CCO)CC4)cn3)nc2c(N2CCCCC2)n1 [Compound 195],10 to 100 nM,≥ 100 nM
C[C@@H](O)c1cc2cnc(Nc3ccc4c(n3)CCN(CC#N)C4)nc2c(N2CCCCC2)n1 [Compound 196],10 to 100 nM,≥ 100 nM
C[C@@H](O)c1cc2cnc(Nc3ccc4c(n3)CCN(CC3COC3)C4)nc2c(N2CCCCC2)n1 [Compound 197],10 to 100 nM,≥ 100 nM
C[C@@H](O)c1cc2cnc(Nc3ccc(CN4CCN(C)CC4)cn3)nc2c(N2CCC[C@@H](F)C2)n1 [Compound 198],< 10 nM,≥ 100 nM
C[C@@H](O)c1cc2cnc(Nc3ccc(CN4CCN(CCO)CC4)cn3)nc2c(N2CCC[C@@H](F)C2)n1 [Compound 199],< 10 nM,≥ 100 nM
C[C@@H](O)c1cc2cnc(Nc3ccc4c(n3)CCN(C3CN(C)C3)C4)nc2c(N2CCCCC2)n1 [Compound 200],< 10 nM,≥ 100 nM
C[C@@H](O)c1cc2cnc(Nc3ccc4c(n3)CN(CCO)C4)nc2c(N2CCCCC2)n1 [Compound 201],< 10 nM,≥ 100 nM
C[C@H](O)Cc1cc2cnc(Nc3ccc(CN4CCN(CCO)CC4)cn3)nc2c(N2CCCCC2)n1 [Compound 202],10 to 100 nM,≥ 100 nM
C[C@H](O)Cc1cc2cnc(Nc3ccc(N4CCNCC4=O)cn3)nc2c(N2CCCCC2)n1 [Compound 203],< 10 nM,≥ 100 nM
C[C@H](O)Cc1cc2cnc(Nc3ccc4c(n3)CCN(CCO)C4)nc2c(N2CCCCC2)n1 [Compound 204],10 to 100 nM,≥ 100 nM
c1cc(Nc2ncc3cc(C4CCOC4)nc(N4C5CCC4CC5)c3n2)ncc1CN1CCNCC1 (stereo not drawn) [Compound 205],< 10 nM,≥ 100 nM
c1cc(Nc2ncc3cc(C4CCOC4)nc(N4CCCCC4)c3n2)ncc1CN1CCNCC1 (stereo not drawn) [Compound 206],< 10 nM,≥ 100 nM
c1cc(N2CCNCC2)nnc1Nc1ncc2cc(C3CCOC3)nc(N3C4CCC3CC4)c2n1 (stereo not drawn) [Compound 207],< 10 nM,≥ 100 nM
c1cc(N2CCNCC2)nnc1Nc1ncc2cc(C3CCOC3)nc(N3CCCCC3)c2n1 (stereo not drawn) [Compound 208],< 10 nM,≥ 100 nM

SMILES,IC50 (CDK4/cyclin D3),IC50 (CDK2/cyclin A2)
C[C@@H](O)c1cc2cnc(Nc3ccc4c(n3)CCN(C(=O)[C@H]3CCCN3)C4)nc2c(N2CCCCC2)n1 [Compound 209],< 10 nM,≥ 100 nM
C[C@@H](O)c1cc2cnc(Nc3ccc4c(n3)CCN(C(=O)[C@H]3CCNC3)C4)nc2c(N2CCCCC2)n1 [Compound 210],< 10 nM,≥ 100 nM
C[C@@H](O)c1cc2cnc(Nc3ccc4c(n3)CCN(C(=O)[C@H]3CCCCN3)C4)nc2c(N2CCCCC2)n1 [Compound 211],< 10 nM,≥ 100 nM
C[C@@H](O)c1cc2cnc(Nc3ccc4c(n3)CCN(C(=O)[C@H]3C[C@H](O)CN3)C4)nc2c(N2CCCCC2)n1 [Compound 212],< 10 nM,≥ 100 nM
C[C@@H](O)c1cc2cnc(Nc3ccc4c(n3)CCN(C(=O)[C@H]3C[C@@H](O)CN3)C4)nc2c(N2CCCCC2)n1 [Compound 213],< 10 nM,≥ 100 nM
C[C@@H](O)c1cc2cnc(Nc3ccc4c(n3)CCN(C(=O)[C@@H]3CCCNC3)C4)nc2c(N2CCCCC2)n1 [Compound 214],< 10 nM,≥ 100 nM
C[C@@H](O)c1cc2cnc(Nc3ccc4c(n3)CCN(C(=O)[C@H]3CCN3)C4)nc2c(N2CCCCC2)n1 [Compound 215],< 10 nM,≥ 100 nM
C[C@@H](O)c1cc2cnc(Nc3ccc4c(n3)CCN(C(=O)C3CNCCO3)C4)nc2c(N2CCCCC2)n1 (stereo partly drawn) [Compound 216],< 10 nM,≥ 100 nM
CC(O)c1cc2cnc(Nc3ccc(OC4CCN(CCO)CC4)cn3)nc2c(N2C3CCC2CC3)n1 (stereo not drawn) [Compound 218],< 10 nM,≥ 100 nM
C[C@@H](O)c1cc2cnc(Nc3ccc(OC4CCN(CCO)CC4)cn3)nc2c(N2CC[C@@H](F)C2)n1 [Compound 219],< 10 nM,≥ 100 nM
C[C@@H](O)c1cc2cnc(Nc3ccc(OC4CCNCC4)cn3)nc2c(N2C3CCC2CC3)n1 [Compound 220],< 10 nM,≥ 100 nM
C[C@@H](O)c1cc2cnc(Nc3ccc(OC4CCNCC4)cn3)nc2c(N2CC[C@@H](F)C2)n1 [Compound 221],< 10 nM,≥ 100 nM
C[C@@H](O)c1cc2cnc(Nc3ccc(OC4CCN(CCO)CC4)cn3)nc2c(N2CCC[C@H](F)C2)n1 [Compound 222],< 10 nM,≥ 100 nM
C[C@@H](O)c1cc2cnc(Nc3ccc4c(n3)CCN(C(=O)[C@@H]3CCCN3C)C4)nc2c(N2C3CCC2CC3)n1 [Compound 223],< 10 nM,≥ 100 nM
C[C@@H](O)c1cc2cnc(Nc3ccc4c(n3)CCN(C(=O)[C@H]3CCCN3C)C4)nc2c(N2C3CCC2CC3)n1 [Compound 224],< 10 nM,≥ 100 nM
C[C@@H](O)c1cc2cnc(Nc3ccc4c(n3)CCN(C(=O)[C@H]3CCN(C)C3)C4)nc2c(N2C3CCC2CC3)n1 [Compound 225],< 10 nM,≥ 100 nM
C[C@@H](O)c1cc2cnc(Nc3ccc4c(n3)CCN(C(=O)[C@@H]3CCN(C)C3)C4)nc2c(N2C3CCC2CC3)n1 [Compound 226],< 10 nM,≥ 100 nM
C[C@@H](O)c1cc2cnc(Nc3ccc4c(n3)CCN(C(=O)[C@@H]3C[C@@H](O)CN3C)C4)nc2c(N2C3CCC2CC3)n1 [Compound 227],< 10 nM,≥ 100 nM
C[C@@H](O)c1cc2cnc(Nc3ccc4c(n3)CCN(C(=O)CN3CCCC3)C4)nc2c(N2C3CCC2CC3)n1 [Compound 228],< 10 nM,≥ 100 nM
C[C@@H](O)c1cc2cnc(Nc3ccc4c(n3)CCN(C(=O)CN3CC(O)C3)C4)nc2c(N2C3CCC2CC3)n1 [Compound 229],< 10 nM,≥ 100 nM
C[C@@H](O)c1cc2cnc(Nc3ccc4c(n3)CCN(C(=O)CN3CCC3)C4)nc2c(N2C3CCC2CC3)n1 [Compound 230],< 10 nM,≥ 100 nM
C[C@@H](O)c1cc2cnc(Nc3ccc4c(n3)CCN(C(=O)CN3CC[C@@H](F)C3)C4)nc2c(N2C3CCC2CC3)n1 [Compound 231],< 10 nM,≥ 100 nM
C[C@@H](O)c1cc2cnc(Nc3ccc4c(n3)CCN(C(=O)CN3CC[C@@H](O)C3)C4)nc2c(N2C3CCC2CC3)n1 [Compound 232],< 10 nM,≥ 100 nM
C[C@@H](O)c1cc2cnc(Nc3ccc4c(n3)CCN(C(=O)CN3CC[C@H](O)C3)C4)nc2c(N2C3CCC2CC3)n1 [Compound 233],< 10 nM,≥ 100 nM
C[C@@H](O)c1cc2cnc(Nc3ccc4c(n3)CCN(C(=O)CNC3COC3)C4)nc2c(N2C3CCC2CC3)n1 [Compound 234],10 to 100 nM,≥ 100 nM
C[C@@H](O)c1cc2cnc(Nc3ccc4c(n3)CCN(C(=O)CN3CC(F)C3)C4)nc2c(N2C3CCC2CC3)n1 [Compound 235],< 10 nM,≥ 100 nM
CC(O)c1cc2cnc(Nc3ccc4c(n3)CCN(C(=O)CN3CC5(COC5)C3)C4)nc2c(N2C3CCC2CC3)n1 (stereo not drawn) [Compound 236],< 10 nM,≥ 100 nM
